In patent US7307083B2, “Tetrahydro-acridine and dithiolane derivatives” (priority 2005, dated 2007):
“Also recorded” adds a separate entry of the source. Like-named read-outs stand apart in the source and are kept apart here. Marks after values point to notes of the source that are not given here. Square brackets hold non-standard residues; d marks the D form. Peptide text beside a SMILES is read from it. Sta = CC(C)C[C@H](N)[C@@H](O)CC(=O)O

What was measured:
[1] = target: human recombinant acetylcholinesterase (AChE or HuAChE) (Homo sapiens, UniProt P22303); experiment: biochemical; type: biochemical
[2] = test system: anti-NGF mice (AD11); experiment: Cholinergic deficit of anti-NGF mice: ChAT immunohistochemistry, cholinergic neurones in the basal forebrain; conditions: i.p., 15 days, doses of Table 6
Description: Immunohistochemistry was carried out to show the number of cholinergic neurones in the basal forebrain. For this purpose, sections were incubated with the monoclonal antibody anticholine acetyltransferase (1:500, Chemicon International Inc., Temecula, Calif.).

[3] = target: human recombinant AChE (Homo sapiens, UniProt P22303); experiment: Action mechanism and inhibition constant Ki (Lineweaver-Burk method); type: biochemical
Description: Determination of the action mechanism and of the inhibition constant (Ki). […] To obtain an estimate of the competitive inhibition constant Ki, the Lineweaver-Burk method was used. […] The data obtained were plotted on a graph according to the Lineweaver-Burk method, that is indicating the reciprocal of the enzymatic velocity (1/v) as a function of the reciprocal of the substrate concentration (1/[ACTh)].

[4] = test system: SH-SY5Y cells; experiment: Toxic effects, colorimetric MTT assay; type: cell-based; conditions: 24 hours; for effect on cellular viability (MTT): 0.1-50 μM
Description: The results are expressed as a percentage of cells with respect to the control.
The cellular viability was expressed as a percentage of control cells and calculated by the formula Ft/Fnt×100, where Ft=absorbance of treated neurones and Fnt=absorbance of non treated neurones.
The SH-SY5Y cells were routinely grown at 37° C. in a humidified incubator with 5% CO2 in Dulbecco's modified Eagle's medium supplemented with 10% foetal calf serum (FCS), glutamine 2 mM, penicillin […] and streptomycin 50 μg/mL.

[5] = test system: SH-SY5Y cells; experiment: Intracellular antioxidant activity: ROS formation evoked by t-BuOOH (DCFH-DA probe); type: cell-based, human; conditions: for % intracellular ROS: percentage increase of ROS by t-BuOOH, mean±SD of three tests; for effect on ROS formation, in words: 0.1-50 μM for LA and 7, 0.1-5 μM for 15
Description: Significant inhibiting effects were obtained with concentrations of 7 or 5 μM (p<0.01), 10 μM and 50 μM (for both p<0.001).
The results are expressed as the percentage increase of intracellular ROS determined by the treatment with tert-butyl hydroperoxide. Data are reported as the mean±SD (standard deviation) of three tests independent of one another (treated against not treated; *p<0.01, **p<0.001). ^btox=cytotoxicity.

[6] = target: butyrylcholinesterase (BChE) from human serum (Homo sapiens, UniProt P06276); experiment: biochemical; type: biochemical
[7] = target: T1, BACE1 (β-secretase) (Homo sapiens, UniProt P56817); experiment: biochemical
T1 construct: host or cells: Baculovirus expression system
Description: Assay for the analysis of BACE activity
BACE1 (β-secretase) purified and expressed in Baculovirus in 50 mM Tris HCl (pH=7.5), 10% glycerol (5 Units)
Assay buffer: 50 mM Sodium Acetate, pH=4.5
20 μL of substrate were added to 20 μL of the compound to be tested (or to the buffer if preparing the control well)
To start the reaction, 20 μL of BACE1 enzyme were added to the well.
The mixture was incubated at 37° C. for 60 minutes.
20 μL of the solution were added to stop the reaction. Then the fluorescence signal was read.
BACE activity was measured with a fluorimetric analysis method using a multi-well spectrofluorimeter. The peptide substrate of the analysis mimes the APP protein which is the natural substrate of BACE.
The inhibition curves were obtained for each compound by plotting on a graph the inhibition percentages obtained with respect to the logarithm of the inhibitor concentration. The linear regression parameters were determined and, when possible, the value of IC50 was extrapolated (GraphPad Prism 3.0 GraphPad Software Inc.).
The value of IC50 was calculated using GraphPad Prism software.

[8] = target: T2, AChE-induced Aβ40 aggregation (Homo sapiens, UniProt P22303); experiment: biochemical; conditions: for inhibition at 100 µM: read-out: % of inhibition ± SEM of AChE-induced Aβ40 aggregation
[9] = target: T2, AChE-induced Aβ40 aggregation
[10] = BChE from human serum, mean of two independent measurements, each in duplicate, read-out: IC50 BChE
[11] = human recombinant AChE, mean of two independent measurements, each in duplicate, read-out: IC50 AChE

T1 sequence (P56817 46-501): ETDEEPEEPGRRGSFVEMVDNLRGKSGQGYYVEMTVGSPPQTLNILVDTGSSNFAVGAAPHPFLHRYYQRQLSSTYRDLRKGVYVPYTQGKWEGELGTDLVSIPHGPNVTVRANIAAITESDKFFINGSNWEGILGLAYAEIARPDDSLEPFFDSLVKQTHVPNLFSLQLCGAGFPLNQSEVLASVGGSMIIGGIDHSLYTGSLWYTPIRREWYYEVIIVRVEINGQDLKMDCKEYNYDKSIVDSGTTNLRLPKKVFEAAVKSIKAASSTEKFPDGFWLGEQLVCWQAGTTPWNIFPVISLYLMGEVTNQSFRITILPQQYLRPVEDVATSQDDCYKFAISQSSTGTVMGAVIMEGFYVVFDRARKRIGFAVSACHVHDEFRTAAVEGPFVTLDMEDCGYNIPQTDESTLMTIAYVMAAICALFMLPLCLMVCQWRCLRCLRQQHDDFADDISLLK
human recombinant acetylcholinesterase (AChE or HuAChE), sequence (P22303 32-614): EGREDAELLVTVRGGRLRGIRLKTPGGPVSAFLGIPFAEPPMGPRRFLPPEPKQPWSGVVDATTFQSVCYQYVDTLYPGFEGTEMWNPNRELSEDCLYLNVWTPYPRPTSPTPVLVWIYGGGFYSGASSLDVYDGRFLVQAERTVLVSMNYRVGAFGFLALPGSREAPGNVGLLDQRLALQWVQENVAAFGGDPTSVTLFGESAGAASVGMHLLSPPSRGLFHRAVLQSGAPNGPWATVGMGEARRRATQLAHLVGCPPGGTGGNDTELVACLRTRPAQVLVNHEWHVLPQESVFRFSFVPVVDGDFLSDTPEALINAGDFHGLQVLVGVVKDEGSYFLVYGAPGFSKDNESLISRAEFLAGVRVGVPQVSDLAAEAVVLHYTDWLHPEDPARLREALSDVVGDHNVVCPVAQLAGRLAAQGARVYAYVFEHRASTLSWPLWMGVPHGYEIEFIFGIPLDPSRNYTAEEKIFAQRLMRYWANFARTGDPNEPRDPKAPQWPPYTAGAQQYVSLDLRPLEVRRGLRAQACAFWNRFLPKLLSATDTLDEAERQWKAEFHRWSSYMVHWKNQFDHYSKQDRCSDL
T2 sequence (P22303 32-614): as above
butyrylcholinesterase (BChE) from human serum, sequence (P06276 29-602): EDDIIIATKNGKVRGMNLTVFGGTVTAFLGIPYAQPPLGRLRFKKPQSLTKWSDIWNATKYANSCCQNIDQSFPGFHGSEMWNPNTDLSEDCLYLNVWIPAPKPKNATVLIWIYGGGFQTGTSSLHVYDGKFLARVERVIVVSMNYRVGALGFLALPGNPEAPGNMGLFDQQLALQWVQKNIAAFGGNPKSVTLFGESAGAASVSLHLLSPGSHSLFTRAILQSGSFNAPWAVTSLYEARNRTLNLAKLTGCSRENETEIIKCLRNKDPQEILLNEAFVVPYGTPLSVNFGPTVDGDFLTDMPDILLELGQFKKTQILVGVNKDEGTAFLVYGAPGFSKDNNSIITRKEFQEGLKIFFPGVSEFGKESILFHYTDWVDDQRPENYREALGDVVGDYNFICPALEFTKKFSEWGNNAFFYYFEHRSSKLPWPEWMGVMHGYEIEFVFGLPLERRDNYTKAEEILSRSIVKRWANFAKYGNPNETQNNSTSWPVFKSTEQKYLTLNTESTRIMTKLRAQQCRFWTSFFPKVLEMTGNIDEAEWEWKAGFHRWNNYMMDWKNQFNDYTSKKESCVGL
human recombinant AChE, sequence (P22303 32-614): as the sequence (P22303 32-614) above

For O=C(CCCCC1CCSS1)NCCCNc1c2c(nc3cc(Cl)ccc13)CCCC2 (racemic) [Compound 7, 5-[1,2]dithiolan-3-yl-pentanoic acid [3-(6-chloro-1,2,3,4-tetrahydro-acridin-9-ylamino)-propyl]-amide], the IC50 [1] was 0.253 nM, the “recovery of the cholinergic deficit (number of cholinergic neurones in the basal forebrain)” value (from here on “recovery of the cholinergic deficit”) [2] was “did not allow the complete recovery of the cholinergic deficit” and the Ki [3] was 0.155 ± 0.046 nM. The “type of inhibition (Lineweaver-Burk)” value [3] was “mixed type of competitive inhibition”, the “effect on cellular viability (MTT)” value [4] was “did not lead to variations in cellular viability; also recorded: do not influence cellular vitality” and the “% intracellular ROS” value ([5]; 0.1 μM) was 99.50 ± 3.54%. The “% intracellular ROS” value ([5]; 0.5 μM) was 99.67 ± 7.02%, the “% intracellular ROS” value ([5]; 1 μM) was 96.67 ± 8.02% and the “% intracellular ROS” value ([5]; 5 μM) was 82.50 ± 7.78%. The “% intracellular ROS” value ([5]; 10 μM) was “tox^b”, the “% intracellular ROS” value ([5]; 50 μM) was “tox^b” and the “effect on ROS formation, in words” value [5] was “inhibiting effect in ROS formation which depended strongly on the concentration”. For the same compound, the “inhibition of ROS formation” value ([5]; SH-SY5Y, t-BuOOH) was 64%, the IC50 [6, 10] was 10.8 nM and the IC50 ([7]; substrate 250 nM, enzyme 1 U/mL, 60 minutes, 37° C., read-out: IC50 (nM) on BACE) was 69.7 nM. For the same compound, the IC50 [8] was 45000 ± 14600 nM, the inhibition at 100 µM [8] was 61.8 ± 0.8% and the “power versus other classic AChE inhibitors approved for AD (AChE-induced Aβ40 aggregation)” value [9] was “significantly more powerful than other classic AChE inhibitors”. For the same compound, the “times less powerful than propidium (AChE-induced Aβ40 aggregation)” value [9] was 3.

For O=C(CCCCC1CCSS1)NCCNc1c2c(nc3ccccc13)CCCC2 (stereo not shown) [Compound 1, 5-[1,2]dithiolan-3-yl-pentanoic acid [2-(1,2,3,4-tetrahydro-acridin-9-ylamino)-ethyl]amide], the IC50 [1, 11] was 97 nM and the IC50 [6, 10] was 47.5 nM.

Work on O=C(CCCCC1CCSS1)NCCCNc1c2c(nc3ccccc13)CCCC2 (stereo not shown) [Compound 2, 5-[1,2]dithiolan-3-yl-pentanoic acid [3-(1,2,3,4-tetrahydro-acridin-9-ylamino)propyl]amide] yielded an IC50 [1, 11] of 6.96 nM and an IC50 [6, 10] of 12 nM.

Compound O=C(CCCCC1CCSS1)NCCCCNc1c2c(nc3ccccc13)CCCC2 (stereo not shown) [Compound 3, 5-[1,2]dithiolan-3-yl-pentanoic acid [4-(1,2,3,4-tetrahydro-acridin-9-ylamino)-butyl]amide] has an IC50 [1, 11] of 35.2 nM and an IC50 ([6]; read-out: IC50 BChE) of 5.04 nM.

O=C(CCCCC1CCSS1)NCCCCCNc1c2c(nc3ccccc13)CCCC2 (stereo not shown) [Compound 4, 5-[1,2]dithiolan-3-yl-pentanoic acid [5-(1,2,3,4-tetrahydro-acridin-9-ylamino)-pentyl]-amide] was tested, and the IC50 [1, 11] was 38.4 nM and the IC50 ([6]; read-out: IC50 BChE) was 1.48 nM.

O=C(CCCCC1CCSS1)NCCCCCCNc1c2c(nc3ccccc13)CCCC2 (stereo not shown) [Compound 5, 5-[1,2]dithiolan-3-yl-pentanoic acid [6-(1,2,3,4-tetrahydro-acridin-9-ylamino)-hexyl]-amide] showed an IC50 [1, 11] of 30.1 nM and an IC50 [6, 10] of 3.24 nM.

For O=C(CCCCC1CCSS1)NCCCCCCCNc1c2c(nc3ccccc13)CCCC2 (stereo not shown) [Compound 6, 5-[1,2]dithiolan-3-yl-pentanoic acid [7-(1,2,3,4-tetrahydro-acridin-9-ylamino)-heptyll]-amide], the IC50 [6, 10] was 8.58 nM.

Compound Nc1c2c(nc3cc(Cl)ccc13)CC(CNC(=O)CCCCC1CCSS1)CC2 (stereo not shown) [Compound 8, 5-[1,2]dithiolan-3-yl-pentanoic acid (9-Amino-6-chloro-1,2,3,4-tetrahydro-acridin-3-ylmethyl)-amide] has an IC50 [1, 11] of 232 nM.

For NCCCNc1c2c(nc3cc(Cl)ccc13)CCCC2 [Compound 15, N^1-(6-chloro-1,2,3,4-tetrahydro-acridin-9-yl)-propane-1,3-diamine], the IC50 ([1]; read-out: IC50 AChE) was 21.5 nM, the “decrease of cellular viability” value ([4]; 10 μM) was 88% and the “decrease of cellular viability” value ([4]; 50 μM) was 99%. For the same compound, the “effect on cellular viability (MTT)” value [4] was “has a neurotoxic effect”, the “% intracellular ROS” value ([5]; 0.1 μM) was 88.75 ± 8.41% and the “% intracellular ROS” value ([5]; 0.5 μM) was 95.00 ± 5.20%. The “% intracellular ROS” value ([5]; 1 μM) was 77.00 ± 8.76%, the “% intracellular ROS” value ([5]; 5 μM) was 61.67 ± 9.02* % and the “% intracellular ROS” value ([5]; 10 μM) was 51.25 ± 9.21** %. The “% intracellular ROS” value ([5]; 50 μM) was 30.50 ± 9.04** %, the “effect on ROS formation, in words” value [5] was “did not show any difference as regards ROS formation” and the inhibition at 100 µM [8] was 25 ± 5%.

In the case of CCN(CCCCCCNC(=O)CCCCC1CCSS1)Cc1ccccc1OC (stereo not shown) [Compound 18, 5-[1,2]dithiolan-3-yl-pentanoic acid {6-[Ethyl-(2-methoxy-benzyl)-amino]-hexyl}-amide], the IC50 [1, 11] is reported as 256 nM, the “recovery of the cholinergic deficit” value [2] is reported as “significant recovery” and the IC50 [6, 10] is reported as 2490 nM. It also gave an inhibition at 100 µM [8] of 16.8 ± 2.2%.

For CC(c1cccc(OCCCNC(=O)CCCCC2CCSS2)c1)N(C)C (stereo not shown) [Compound 19, 5-[1,2]dithiolan-3-yl-pentanoic acid {3-[3-(1-dimethylamino-ethyl)-phenoxy]-propyl}-amide], the IC50 [1, 11] was 25200 nM, the “recovery of the cholinergic deficit” value [2] was “did not allow the complete recovery of the cholinergic deficit” and the IC50 [6] was 82400 nM. For the same compound, the inhibition at 100 µM [8] was 9 ± 6.6%.

COc1cccc(C(C)N(C)CCCNC(=O)CCCCC2CCSS2)c1 (stereo not shown) [Compound 20, 5-[1,2]dithiolan-3-yl-pentanoic acid (3-{[1-(3-methoxy-phenyl)-ethyl]-methyl-amino}-propyl)-amide] was tested, and the IC50 [1, 11] was 74100 nM, the “recovery of the cholinergic deficit” value [2] was “did not allow the complete recovery of the cholinergic deficit” and the IC50 [6, 10] was 398 nM. It also gave an inhibition at 100 µM [8] of 15.6 ± 7.8%.

O=C(CCCCc1cccs1)NCCCNc1c2c(nc3cc(Cl)ccc13)CCCC2 [Compound 21, 5-thiofen-2-yl-pentanoic acid [3-(6-chloro-1,2,3,4-tetrahydro-acridin-9-ylamino)-propyl]-amide] gave an IC50 [1] of 2.66 nM, an IC50 [6, 10] of 30.6 nM and an inhibition at 100 µM [8] of 24.1 ± 5.7%.

COc1cc2nc(Cl)nc(NCCCNC(=O)CCCCC3CCSS3)c2cc1OC (stereo not shown) [Compound 23, 5-[1,2]dithiolan-3-yl-pentanoic acid [3-(2-chloro-6,7-dimethoxy-chinazoline-4-ylamino)-propyl]-amide] showed an IC50 [1] of 192000 nM and an inhibition at 100 µM [8] of 32.1 ± 3.9%.

For O=C(CCCC[C@@H]1CCSS1)NCCCNc1c2c(nc3cc(Cl)ccc13)CCCC2 [Compound 24], the IC50 [1] was 0.23 nM, the inhibition at 100 µM [8] was 68 ± 3% and the “power versus other classic AChE inhibitors approved for AD (AChE-induced Aβ40 aggregation)” value [9] was “significantly more powerful than other classic AChE inhibitors”.

COc1ccc2c3c1O[C@H]1C[C@@H](O)C=C[C@@]31CCN(C)C2 [Galantamine] gave an IC50 [7] greater than 5000 nM.

With O=C(O)CCCCC1CCSS1 (stereo not shown) [LA, lipoic acid, reference compound] the “recovery of the cholinergic deficit” value [2] was “did not allow the complete recovery of the cholinergic deficit” and the “% of inhibition ± SEM of AChE-induced Aβ40 aggregation” value ([9]; compound 100 μM) was less than 5%.

In the case of CCN(C)C(=O)Oc1cccc([C@H](C)N(C)C)c1 [Rivastigmine], the IC50 [7] is reported as greater than 3000 nM.

For Nc1c2c(nc3ccccc13)CCCC2 [Tacrine, reference compound], the “recovery of the cholinergic deficit” value [2] was “did not allow the complete recovery of the cholinergic deficit” and the IC50 [7] was greater than 4000 nM.

CC[C@H](C)[C@H](NC(=O)[C@H](CCC(=O)O)NC(=O)[C@H](CCC(=O)O)NC(=O)[C@@H](NC(=O)[C@@H](N)CCCCN)[C@@H](C)O)C(=O)N[C@@H](CO)C(=O)N[C@@H](CCC(=O)O)C(=O)N[C@H](C(=O)N[C@@H](CC(N)=O)C(=O)N[C@@H](CC(C)C)[C@@H](O)CC(=O)N[C@H](C(=O)N[C@@H](C)C(=O)N[C@@H](CCC(=O)O)C(=O)N[C@@H](Cc1ccccc1)C(=O)O)C(C)C)C(C)C [peptide derivative of statin] (H-KTEEISEVN[Sta]VAEF-OH) gave an IC50 [7] of 18 nM.
